Assay results as given in patent US12697367B2, “Medicament for improving or preventing symptoms relating to retina and/or light reception and method for screening for substance capable of improving or preventing symptoms relating to retina and/or light reception” (Osaka University, priority 2018, dated 2026).

Tests used:
[1] = test system: BALB/c mice with light-induced damage (blue LED light); assay: Light-induced damage experiment in mice: immunofluorescence staining of the photoreceptor layer of the retina; assay type: in vivo; details: tacrolimus 10 mg/kg subcutaneously every day for 6 days
Protocol: For dark adaptation, BALB/c mice aged 4 weeks (Japan SLC, Inc.) were housed in the dark for 12 hours. […] For control mice, DMSO was administered. Mydriatic eye drops, […] Pharmaceutical Co., Ltd.), were administered in the dark 30 minutes before completion of dark adaptation. The mice were placed in a box with four mirrored walls and a mirrored floor, and exposed to blue light from a blue LED light. The wavelength of the blue LED light was about 450 nm, and the light reaching the mice was about 7000 lx. After exposure to blue light for 3 hours, the mice were housed under normal light conditions (about 30 lx light from fluorescent lamps) for 9 hours. This dark/light cycle repeated as one cycle for 6 days. In other words, administration of the drug and exposure to blue light (3 hours) were performed every day for 6 days to induce light-induced damage. On the next day following the last exposure to blue light, the mice were euthanized and the eyes were harvested. The specimens were fixed in 4% paraformaldehyde/PBS (phosphate buffer saline) at room temperature for 5 minutes. The specimens were then washed with PBS, and embedded in O.C.T. compound (Sakura Finetek). Retinal cryosections of 20 μm thick were sliced with a cryostat, mounted on glass slides, and dried at room temperature. The sections were washed twice with PBS, and blocked with blocking buffer (5% normal donkey serum and 0.1% TritonX-100 in PBS) at room temperature for 1 hour. The sections were reacted with primary antibodies at 4° C. overnight. The sections were washed three times with PBS, and reacted with secondary antibodies at room temperature for 2 hours. The primary antibodies used in this study were anti-Rhodopsin antibody (rhodopsin, rabbit polyclonal, Santa Cruz, 1:500 dilution), anti-S-opsin antibody (S-opsin (blue cone opsin), goat polyclonal, Santa Cruz, 1:500 dilution), and anti-M-opsin antibody (M-opsin (green cone opsin), rabbit polyclonal, Millipore, 1:500 dilution). […] All the fluorescence images were acquired under a confocal laser scanning microscope (LSM 700, Carl Zeiss).

[2] = test system: BALB/c mice with light-induced damage (blue LED light); assay: Light-induced damage experiment in mice: measurement of thickness of photoreceptor layer; assay type: in vivo; details: tacrolimus 10 mg/kg subcutaneously every day for 6 days; blue light about 450 nm, about 7000 lx, 3 hours daily; vs DMSO control; FIG. 3
Protocol: For dark adaptation, BALB/c mice aged 4 weeks (Japan SLC, Inc.) were housed in the dark for 12 hours. […] For control mice, DMSO was administered. Mydriatic eye drops, Cyplegin (Santen Pharmaceutical Co., Ltd.), were administered in the dark 30 minutes before completion of dark adaptation. The mice were placed in a box with four mirrored walls and a mirrored floor, and exposed to blue light from a blue LED light. The wavelength of the blue LED light was about 450 nm, and the light reaching the mice was about 7000 lx. After exposure to blue light for 3 hours, the mice were housed under normal light conditions (about 30 lx light from fluorescent lamps) for 9 hours. This dark/light cycle repeated as one cycle for 6 days. In other words, administration of the drug and exposure to blue light (3 hours) were performed every day for 6 days to induce light-induced damage.
Mouse retinal sections prepared in the same manner as above were washed twice with PBS, and the nuclei were stained with DAPI. The thickness of the photoreceptor layer was measured as the distance from the optic nerve. Specifically, the images were acquired under a confocal laser scanning microscope (LSM 700, Carl Zeiss), and the thickness of the photoreceptor layer was measured using the image analysis software Metamorph (Molecular Devices).

## C=CC[C@@H]1/C=C(\C)C[C@H](C)C[C@H](OC)[C@H]2O[C@@](O)(C(=O)C(=O)N3CCCC[C@H]3C(=O)O[C@H](/C(C)=C/[C@@H]3CC[C@@H](O)[C@H](OC)C3)[C@H](C)[C@@H](O)CC1=O)[C@H](C)C[C@@H]2OC [tacrolimus, (3S,4R,5S,8R,9E,12S,14S,15R,16S,18R,19R,26aS)-5,19-Dihydroxy-3-{(1E)-2-[(1R,3R,4R)-4-hydroxy-3-methoxycyclohexyl]-1-methylethenyl}-14,16-dimethoxy-4,10,12,18-tetramethyl-8-(prop-2-en-1-yl)-15,19-epoxy-5,6,8,11,12,13,14,15,16,17,18,19,24,25,26,26a-hexadecahydro-3H-pyrido[2,1-c][1,4]oxaazacyclotricosine-1,7,20,21(4H,23H)-tetrone monohydrate]
[1]; blue light about 450 nm, about 7000 lx, 3 hours daily, vs DMSO control, FIG. 1
  structure of the outer segment of the rod photoreceptor cells (anti-Rhodopsin antibody staining): maintained and comparable to that of control mice without light-induced damage
[1]; blue light about 450 nm, about 7000 lx, 3 hours daily, vs DMSO control, FIG. 2
  structure of the cone photoreceptor cells (anti-S-opsin and anti-M-opsin antibody staining): maintained and comparable to that of control mice without light-induced damage
[1]; mice with light-induced damage
  degeneration of photoreceptor cells due to light exposure (overall conclusion): inhibits the degeneration of photoreceptor cells due to light exposure
[2]
  thickness of the photoreceptor layer: maintained and comparable to that of control mice without light-induced damage
